US20230146675A1, “PYRIMIDO[5,4-d]PYRIMIDINE DERIVATIVES AS ENT INHIBITORS FOR THE TREATMENT OF CANCERS, AND COMBINATION THEREOF WITH ADENOSINE RECEPTOR ANTAGONISTS” (ITEOS BELGIUM SA, priority 2020, published 2023)

These compounds were tested against T1, human ENT1 (Homo sapiens, UniProt Q99808) (assay: ENT1 binding assay (competition with Sahenta-DY647 on JAR cells)). Conditions: binned IC50.
T1 sequence (Q99808 1-456): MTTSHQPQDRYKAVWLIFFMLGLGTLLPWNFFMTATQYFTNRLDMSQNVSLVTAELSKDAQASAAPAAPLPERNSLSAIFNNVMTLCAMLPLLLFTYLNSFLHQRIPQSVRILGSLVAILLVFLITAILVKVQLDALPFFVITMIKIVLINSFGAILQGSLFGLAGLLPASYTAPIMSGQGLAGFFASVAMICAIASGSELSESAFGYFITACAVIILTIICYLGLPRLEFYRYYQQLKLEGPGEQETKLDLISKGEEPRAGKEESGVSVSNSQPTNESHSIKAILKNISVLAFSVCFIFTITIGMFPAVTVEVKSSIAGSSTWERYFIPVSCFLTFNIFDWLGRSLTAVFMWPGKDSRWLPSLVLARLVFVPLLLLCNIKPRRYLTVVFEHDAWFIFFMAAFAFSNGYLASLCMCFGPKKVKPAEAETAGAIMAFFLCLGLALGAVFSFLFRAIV
Design: JAR cells expressing ENT1 were bought from ATCC; host or cells: JAR cells
Procedure, shortened: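 JAR cells were incubated with test compounds and the fluorescent ligand Sahenta-DY647 in competition. Plates were washed twice by centrifugation (4 min, 400 rcf, 4 °C). Binding potency was derived from the final fluorescence.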

Row | IC50 | SMILES
1 | < 100 nM | COCCN(CCOC)c1nc(N2CCN(C)C(=O)C2)c2nc(N(CCOC)CCOC)nc(N(C)Cc3ccc(F)c(C#N)c3)c2n1 [Compound 238, 5-(((2,6-bis(bis(2-methoxyethyl)amino)-8-(4-methyl-3-oxopiperazin-1-yl)pyrimido[5,4-d]pyrimidin-4-yl)(methyl)amino)methyl)-2-fluorobenzonitrile]
2 | < 100 nM | COCCN(CCOC)c1nc(N2CCN(C)C(=O)C2)c2nc(N(CCOC)CCOC)nc(N(C)Cc3ccc(F)c(F)c3)c2n1 [Compound 239, 4-(2,6-bis(bis(2-methoxyethyl)amino)-8-((3,4-difluorobenzyl)(methyl)amino)pyrimido[5,4-d]pyrimidin-4-yl)-1-methylpiperazin-2-one]
3 | 100 to 500 nM | COCCN(CCOC)c1nc(N2CCN(C)C(=O)C2)c2nc(N(CCOC)CCOC)nc(N(C)Cc3cccc(C(N)=O)c3)c2n1 [Compound 240, 3-(((2,6-bis(bis(2-methoxyethyl)amino)-8-(4-methyl-3-oxopiperazin-1-yl)pyrimido[5,4-d]pyrimidin-4-yl)(methyl)amino)methyl)benzamide]
4 | 100 to 500 nM | COCCN(CCOC)c1nc(N2CCN(c3ncn(C)n3)CC2)c2nc(N(CCOC)CCOC)nc(N(C)Cc3cccc(F)c3)c2n1 [Compound 241, N4-(3-fluorobenzyl)-N2,N2,N6,N6-tetrakis(2-methoxyethyl)-N4-methyl-8-(4-(1-methyl-1H-1,2,4-triazol-3-yl)piperazin-1-yl)pyrimido[5,4-d]pyrimidine-2,4,6-triamine]
5 | 500 to 1000 nM | COCCN(CCOC)c1nc(N2CCN(c3ncn(C)n3)CC2)c2nc(N(CCOC)CCOC)nc(N(C)Cc3cccc(Cl)c3)c2n1 [Compound 242, N4-(3-chlorobenzyl)-N2,N2,N6,N6-tetrakis(2-methoxyethyl)-N4-methyl-8-(4-(1-methyl-1H-1,2,4-triazol-3-yl)piperazin-1-yl)pyrimido[5,4-d]pyrimidine-2,4,6-triamine]
6 | < 100 nM | COCCN(CCOC)c1nc(N2CCN(c3ncn(C)n3)CC2)c2nc(N(CCOC)CCOC)nc(N(C)Cc3cccc(OC)c3)c2n1 [Compound 243, N4-(3-methoxybenzyl)-N2,N2,N6,N6-tetrakis(2-methoxyethyl)-N4-methyl-8-(4-(1-methyl-1H-1,2,4-triazol-3-yl)piperazin-1-yl)pyrimido[5,4-d]pyrimidine-2,4,6-triamine]
7 | 100 to 500 nM | COCCN(CCOC)c1nc(N2CCN(c3ncn(C)n3)CC2)c2nc(N(CCOC)CCOC)nc(N(C)Cc3cccc(C#N)c3)c2n1 [Compound 244, 3-(((2,6-bis(bis(2-methoxyethyl)amino)-8-(4-(1-methyl-1H-1,2,4-triazol-3-yl)piperazin-1-yl)pyrimido[5,4-d]pyrimidin-4-yl)(methyl)amino)methyl)benzonitrile]
8 | 500 to 1000 nM | COCCN(CCOC)c1nc(N2CCN(c3ncn(C)n3)CC2)c2nc(N(CCOC)CCOC)nc(N(C)Cc3ccc(F)c(C#N)c3)c2n1 [Compound 245, 5-(((2,6-bis(bis(2-methoxyethyl)amino)-8-(4-(1-methyl-1H-1,2,4-triazol-3-yl)piperazin-1-yl)pyrimido[5,4-d]pyrimidin-4-yl)(methyl)amino)methyl)-2-fluorobenzonitrile]
9 | 500 to 1000 nM | COCCN(CCOC)c1nc(N2CCN(c3ncn(C)n3)CC2)c2nc(N(CCOC)CCOC)nc(N(C)Cc3cccc(S(C)(=O)=O)c3)c2n1 [Compound 246, N2,N2,N6,N6-tetrakis(2-methoxyethyl)-N4-methyl-8-(4-(1-methyl-1H-1,2,4-triazol-3-yl)piperazin-1-yl)-N4-(3-(methylsulfonyl)benzyl)pyrimido[5,4-d]pyrimidine-2,4,6-triamine]
10 | 100 to 500 nM | COCCN(CCOC)c1nc(N2CCN(c3ncn(C)n3)CC2)c2nc(N(CCOC)CCOC)nc(N(C)Cc3ccc(F)c(F)c3)c2n1 [Compound 247, N4-(3,4-difluorobenzyl)-N2,N2,N6,N6-tetrakis(2-methoxyethyl)-N4-methyl-8-(4-(1-methyl-1H-1,2,4-triazol-3-yl)piperazin-1-yl)pyrimido[5,4-d]pyrimidine-2,4,6-triamine]
11 | 100 to 500 nM | COCCN(CCOC)c1nc(N2CCN(c3ncn(C)n3)CC2)c2nc(N(CCOC)CCOC)nc(N(C)Cc3cccc(S(N)(=O)=O)c3)c2n1 [Compound 248, 3-(((2,6-bis(bis(2-methoxyethyl)amino)-8-(4-(1-methyl-1H-1,2,4-triazol-3-yl)piperazin-1-yl)pyrimido[5,4-d]pyrimidin-4-yl)(methyl)amino)methyl)benzenesulfonamide]
12 | 100 to 500 nM | COCCN(CCOC)c1nc(N2CCN(c3ncn(C)n3)CC2)c2nc(N(CCOC)CCOC)nc(N(C)Cc3cccc(C(N)=O)c3)c2n1 [Compound 249, 3-(((2,6-bis(bis(2-methoxyethyl)amino)-8-(4-(1-methyl-1H-1,2,4-triazol-3-yl)piperazin-1-yl)pyrimido[5,4-d]pyrimidin-4-yl)(methyl)amino)methyl)benzamide]
13 | 100 to 500 nM | COCCN(CCOC)c1nc(N2CCn3cncc3C2)c2nc(N(CCOC)CCOC)nc(N3CCN(C)C(=O)C3)c2n1 [Compound 250, 4-(2,6-bis(bis(2-methoxyethyl)amino)-8-(5,6-dihydroimidazo[1,5-a]pyrazin-7(8H)-yl)pyrimido[5,4-d]pyrimidin-4-yl)-1-methylpiperazin-2-one]
14 | 100 to 500 nM | COCCN(CCOC)c1nc(N2CCn3nncc3C2)c2nc(N(CCOC)CCOC)nc(N3CCN(C)C(=O)C3)c2n1 [Compound 251, 4-(2,6-bis(bis(2-methoxyethyl)amino)-8-(6,7-dihydro-[1,2,3]triazolo[1,5-a]pyrazin-5(4H)-yl)pyrimido[5,4-d]pyrimidin-4-yl)-1-methylpiperazin-2-one]
15 | < 100 nM | COCCN(CCOC)c1nc(N2CCc3nn(C)cc3C2)c2nc(N(CCOC)CCOC)nc(N3CCN(C)C(=O)C3)c2n1 [Compound 252, 4-(2,6-bis(bis(2-methoxyethyl)amino)-8-(2-methyl-2,4,6,7-tetrahydro-5H-pyrazolo[4,3-c]pyridin-5-yl)pyrimido[5,4-d]pyrimidin-4-yl)-1-methylpiperazin-2-one]
16 | 100 to 500 nM | COCCN(CCOC)c1nc(N2CCc3c(ncn3C)C2)c2nc(N(CCOC)CCOC)nc(N3CCN(C)C(=O)C3)c2n1 [Compound 253, 4-(2,6-bis(bis(2-methoxyethyl)amino)-8-(1-methyl-1,4,6,7-tetrahydro-5H-imidazo[4,5-c]pyridin-5-yl)pyrimido[5,4-d]pyrimidin-4-yl)-1-methylpiperazin-2-one]
17 | < 100 nM | COCCN(CCOC)c1nc(N2CCc3nocc3C2)c2nc(N(CCOC)CCOC)nc(N3CCN(C)C(=O)C3)c2n1 [Compound 254, 4-(2,6-bis(bis(2-methoxyethyl)amino)-8-(6,7-dihydroisoxazolo[4,3-c]pyridin-5(4H)-yl)pyrimido[5,4-d]pyrimidin-4-yl)-1-methylpiperazin-2-one]
18 | < 100 nM | COCCN(CCOC)c1nc(N2CCc3c(cnn3C)C2)c2nc(N(CCOC)CCOC)nc(N3CCN(C)C(=O)C3)c2n1 [Compound 255, 4-(2,6-bis(bis(2-methoxyethyl)amino)-8-(1-methyl-1,4,6,7-tetrahydro-5H-pyrazolo[4,3-c]pyridin-5-yl)pyrimido[5,4-d]pyrimidin-4-yl)-1-methylpiperazin-2-one]
19 | < 100 nM | COCCN(CCOC)c1nc(N2CCc3oc(C)nc3C2)c2nc(N(CCOC)CCOC)nc(N3CCN(C)C(=O)C3)c2n1 [Compound 256, 4-(2,6-bis(bis(2-methoxyethyl)amino)-8-(2-methyl-6,7-dihydrooxazolo[4,5-c]pyridin-5(4H)-yl)pyrimido[5,4-d]pyrimidin-4-yl)-1-methylpiperazin-2-one]
20 | < 100 nM | COCCN(CCOC)c1nc(N2CCn3ccnc3C2)c2nc(N(CCOC)CCOC)nc(N3CCN(C)C(=O)C3)c2n1 [Compound 257, 4-(2,6-bis(bis(2-methoxyethyl)amino)-8-(5,6-dihydroimidazo[1,2-a]pyrazin-7(8H)-yl)pyrimido[5,4-d]pyrimidin-4-yl)-1-methylpiperazin-2-one]
21 | < 100 nM | COCCN(CCOC)c1nc(N2CCn3cccc3C2)c2nc(N(CCOC)CCOC)nc(N3CCN(C)C(=O)C3)c2n1 [Compound 258, 4-(2,6-bis(bis(2-methoxyethyl)amino)-8-(3,4-dihydropyrrolo[1,2-a]pyrazin-2(1H)-yl)pyrimido[5,4-d]pyrimidin-4-yl)-1-methylpiperazin-2-one]
22 | < 100 nM | COCCN(CCOC)c1nc(N2CCc3cn[nH]c3C2)c2nc(N(CCOC)CCOC)nc(N3CCN(C)C(=O)C3)c2n1 [Compound 259, 4-(2,6-bis(bis(2-methoxyethyl)amino)-8-(1,4,5,7-tetrahydro-6H-pyrazolo[3,4-c]pyridin-6-yl)pyrimido[5,4-d]pyrimidin-4-yl)-1-methylpiperazin-2-one]
23 | < 100 nM | COCCN(CCOC)c1nc(N2CCn3nccc3C2)c2nc(N(CCOC)CCOC)nc(N3CCN(C)C(=O)C3)c2n1 [Compound 260, 4-(2,6-bis(bis(2-methoxyethyl)amino)-8-(6,7-dihydropyrazolo[1,5-a]pyrazin-5(4H)-yl)pyrimido[5,4-d]pyrimidin-4-yl)-1-methylpiperazin-2-one]
24 | < 100 nM | COCCN(CCOC)c1nc(N2CCc3oncc3C2)c2nc(N(CCOC)CCOC)nc(N3CCN(C)C(=O)C3)c2n1 [Compound 261, 4-(2,6-bis(bis(2-methoxyethyl)amino)-8-(6,7-dihydroisoxazolo[4,5-c]pyridin-5(4H)-yl)pyrimido[5,4-d]pyrimidin-4-yl)-1-methylpiperazin-2-one]
